Patent publication US11591355B2 (Peloton Therapeutics, Inc., priority 2017, dated 2023)
pIC50: −log10 of the molar value.

How the values were obtained:
[1] = target: T1, Human CD73 (Homo sapiens, UniProt P21589); experiment: CD73 Enzyme Assay; type: biochemical; settings: 0.25 nM hCD73, 25 μM AMP, kinetic read at 360 nm; read-out: CD73 Enzyme Assay IC50
T1 construct: purchased R&D Systems; host or cells: CHO cells
T1 sequence (P21589 27-549): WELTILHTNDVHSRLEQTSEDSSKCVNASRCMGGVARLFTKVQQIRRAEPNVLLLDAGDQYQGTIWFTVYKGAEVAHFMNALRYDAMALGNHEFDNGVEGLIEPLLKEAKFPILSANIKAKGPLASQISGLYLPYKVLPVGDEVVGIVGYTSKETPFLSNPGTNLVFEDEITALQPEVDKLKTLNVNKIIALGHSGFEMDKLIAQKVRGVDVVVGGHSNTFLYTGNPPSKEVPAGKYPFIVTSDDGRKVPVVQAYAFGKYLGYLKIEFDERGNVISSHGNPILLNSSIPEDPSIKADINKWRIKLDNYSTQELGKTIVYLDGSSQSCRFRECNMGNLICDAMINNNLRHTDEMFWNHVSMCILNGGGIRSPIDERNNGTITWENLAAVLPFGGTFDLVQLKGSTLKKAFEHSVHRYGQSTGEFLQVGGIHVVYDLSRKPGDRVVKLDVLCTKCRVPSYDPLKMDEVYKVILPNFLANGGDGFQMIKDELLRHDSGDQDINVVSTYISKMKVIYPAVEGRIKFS

[2] = target: T2, CD73 on U138 human neuroglioma cells (Homo sapiens, UniProt P21589); experiment: CD73 Cell-Based Assay; settings: U138 cells, AMP substrate, 2 hours at 37° C., inorganic phosphate by malachite green
T2 construct: U138 cells were obtained from ATCC and cultured in DMEM with 10% FBS; host or cells: U138 human neuroglioma cells
T2 sequence (P21589 27-549): T1 sequence (P21589 27-549)
In short: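 Whole U138 cells washed free of phosphate were incubated with 200 μM AMP (mixture concentration before equal-volume addition) plus compound in HEPES-buffered saline, pH 7.4, for 2 h at 37 °C, 5% CO2. Adenosine-forming activity read as inorganic phosphate released into supernatant by malachite green.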

`O=P(O)(O)COC[C@H]1O[C@@H](n2ccc3c(NC4CCCC4)nc(O)nc32)[C@H](O)[C@@H]1O` [Compound 250, [(2R,3S,4R,5R)-5-[4-(cyclopentylamino)-2-hydroxy-pyrrolo[2,3-d]pyrimidin-7-yl]-3,4-dihydroxy-tetrahydro-furan-2-yl]methoxy-methylphosphonic acid] gave a pIC50 [1] of 7.00 to 8.00 and a pIC50 [2] of 7.00 to 8.00.
`COCC#Cc1nc(NC2CCCC2)c2ccn([C@@H]3O[C@H](COCP(=O)(O)O)[C@@H](O)[C@H]3O)c2n1` [Compound 252, [(2R,3S,4R,5R)-5-[4-(cyclopentylamino)-2-(3-methoxyprop-1-ynyl)pyrrolo[2,3-d]-pyrimidin-7-yl]-3,4-dihydroxy-tetrahydro-furan-2-yl]methoxy-methylphosphonic acid] was tested, and the pIC50 [1] was > 8.00 and the pIC50 [2] was > 8.00.
For `CC(C)C#Cc1nc(NC2CCCC2)c2ccn([C@@H]3O[C@H](COCP(=O)(O)O)[C@@H](O)[C@H]3O)c2n1` [Compound 253, [(2R,3S,4R,5R)-5-[4-(cyclopentylamino)-2-(3-methylbut-1-ynyl)pyrrolo[2,3-d]-pyrimidin-7-yl]-3,4-dihydroxy-tetrahydro-furan-2-yl]methoxy-methylphosphonic acid], the pIC50 [1] was > 8.00 and the pIC50 [2] was > 8.00.
`CC(C)(C)C#Cc1nc(NC2CCCC2)c2ccn([C@@H]3O[C@H](COCP(=O)(O)O)[C@@H](O)[C@H]3O)c2n1` [Compound 254, [(2R,3S,4R,5R)-5-[4-(cyclopentylamino)-2-(3,3-dimethylbut-1-ynyl)pyrrolo[2,3-d]-pyrimidin-7-yl]-3,4-dihydroxy-tetrahydro-furan-2-yl]methoxy-methylphosphonic acid] showed a pIC50 [1] of 6.00 to 7.00 and a pIC50 [2] of 6.00 to 7.00.
With `O=P(O)(O)COC[C@H]1O[C@@H](n2ccc3c(NC4CCCC4)nc(C#CC4CC4)nc32)[C@H](O)[C@@H]1O` [Compound 255, [(2R,3S,4R,5R)-5-[4-(cyclopentylamino)-2-(2-cyclopropyl-ethynyl)pyrrolo[2,3-d]-pyrimidin-7-yl]-3,4-dihydroxy-tetrahydro-furan-2-yl]methoxy-methylphosphonic acid] the pIC50 [1] was > 8.00 and the pIC50 [2] was > 8.00.
`C[C@H](O)C#Cc1nc(NC2CCCC2)c2ccn([C@@H]3O[C@H](COCP(=O)(O)O)[C@@H](O)[C@H]3O)c2n1` [Compound 256, [(2R,3S,4R,5R)-5-[4-(cyclopentylamino)-2-[(3S)-3-hydroxybut-1-ynyl]pyrrolo[2,3-d]-pyrimidin-7-yl]-3,4-dihydroxy-tetrahydro-furan-2-yl]methoxy-methylphosphonic acid] was tested, and the pIC50 [1] was > 8.00 and the pIC50 [2] was > 8.00.
With `O=P(O)(O)COC[C@H]1O[C@@H](n2ccc3c(NC4CCCC4)nc(OCCO)nc32)[C@H](O)[C@@H]1O` [Compound 257, ((((2R,3S,4R,5R)-5-(4-(cyclopentylamino)-2-(2-hydroxyethoxy)-7H-pyrrolo[2,3-d]pyrimidin-7-yl)-3,4-dihydroxytetrahydrofuran-2-yl)methoxy)methyl)phosphonic acid] the pIC50 [1] was > 8.00 and the pIC50 [2] was > 8.00.
For `O=P(O)(O)COC[C@H]1O[C@@H](n2ccc3c(NC4CCCC4)nc(OCCCO)nc32)[C@H](O)[C@@H]1O` [Compound 258, [(2R,3S,4R,5R)-5-[4-(cyclopentylamino)-2-(3-hydroxypropoxy)-pyrrolo[2,3-d]pyrimidin-7-yl]-3,4-dihydroxy-tetrahydrofuran-2-yl]-methoxymethylphos-phonic acid], the pIC50 [1] was 7.00 to 8.00 and the pIC50 [2] was > 8.00.
`COCCOc1nc(NC2CCCC2)c2ccn([C@@H]3O[C@H](COCP(=O)(O)O)[C@@H](O)[C@H]3O)c2n1` [Compound 260, [(2R,3S,4R,5R)-5-[4-(cyclopentylamino)-2-(2-methoxyethoxy)-pyrrolo[2,3-d]-pyrimidin-7-yl]-3,4-dihydroxy-tetrahydro-furan-2-yl]methoxy-methylphosphonic acid] gave a pIC50 [1] of 7.00 to 8.00 and a pIC50 [2] of 7.00 to 8.00.
In the case of `C[C@@H](O)COc1nc(NC2CCCC2)c2ccn([C@@H]3O[C@H](COCP(=O)(O)O)[C@@H](O)[C@H]3O)c2n1` [Compound 261, [(2R,3S,4R,5R)-5-[4-(cyclopentylamino)-2-[(2R)-2-hydroxy-propoxy]pyrrolo[2,3-d]pyrimidin-7-yl]-3,4-dihydroxy-tetrahydro-furan-2-yl]methoxy-methylphosphonic acid], the pIC50 [1] was > 8.00 and the pIC50 [2] was > 8.00.
For `CCOc1nc(NC2CCCC2)c2ccn([C@@H]3O[C@H](COCP(=O)(O)O)[C@@H](O)[C@H]3O)c2n1` [Compound 262, [(2R,3S,4R,5R)-5-[4-(cyclopentylamino)-2-ethoxy-pyrrolo[2,3-d]-pyrimidin-7-yl]-3,4-dihydroxy-tetrahydro-furan-2-yl]methoxy-methylphosphonic acid], the pIC50 [1] was 7.00 to 8.00 and the pIC50 [2] was 7.00 to 8.00.
`CC(O)COc1nc(NC2CCCC2)c2ccn([C@@H]3O[C@H](COCP(=O)(O)O)[C@@H](O)[C@H]3O)c2n1` (stereo partly drawn) [Compound 263, [(2R,3S,4R,5R)-5-[4-(cyclopentylamino)-2-(2-hydroxypropoxy)-pyrrolo[2,3-d]pyrimidin-7-yl]-3,4-dihydroxy-tetrahydrofuran-2-yl]-methoxymethylphos-phonic acid] was tested, and the pIC50 [1] was > 8.00 and the pIC50 [2] was > 8.00.
For `C[C@H](Nc1nc(Cl)nc2c1cnn2[C@@H]1O[C@H](COCP(=O)(O)O)[C@@H](O)[C@H]1O)c1ccc(F)cc1` [Compound 265, [(2R,3S,4R,5R)-5-[6-chloro-4-[[(1S)-1-(4-fluorophenyl)ethyl]-amino]pyrazolo[3,4-d]-pyrimidin-1-yl]-3,4-dihydroxy-tetrahydro-furan-2-yl]methoxy-methylphosphonic acid], the pIC50 [1] was 7.00 to 8.00 and the pIC50 [2] was 7.00 to 8.00.
With `CC#Cc1nc(NC2CCCC2)c2ccn([C@@H]3O[C@H](COCP(=O)(O)O)[C@@H](O)[C@H]3O)c2n1` [Compound 266, [(2R,3S,4R,5R)-5-[4-(cyclopentylamino)-2-prop-1-ynyl-pyrrolo-[2,3-d]pyrimidin-7-yl]-3,4-dihydroxy-tetrahydrofuran-2-yl]-methoxymethylphos-phonic acid] the pIC50 [1] was > 8.00 and the pIC50 [2] was > 8.00.
In the case of `C[C@@H](O)C#Cc1nc(NC2CCCC2)c2ccn([C@@H]3O[C@H](COCP(=O)(O)O)[C@@H](O)[C@H]3O)c2n1` [Compound 267, [(2R,3S,4R,5R)-5-[4-(cyclopentylamino)-2-[(3R)-3-hydroxybut-1-ynyl]pyrrolo[2,3-d]-pyrimidin-7-yl]-3,4-dihydroxy-tetrahydro-furan-2-yl]methoxy-methylphosphonic acid], the pIC50 [1] was > 8.00 and the pIC50 [2] was > 8.00.
For `C[C@@H](Nc1nc(Cl)nc2c1cnn2[C@@H]1O[C@H](COCP(=O)(O)O)[C@@H](O)[C@H]1O)c1ccc(F)cc1` [Compound 269, [(2R,3S,4R,5R)-5-[6-chloro-4-[[(1R)-1-(4-fluorophenyl)ethyl]-amino]pyrazolo[3,4-d]-pyrimidin-1-yl]-3,4-dihydroxy-tetrahydro-furan-2-yl]methoxy-methylphosphonic acid], the pIC50 [1] was 7.00 to 8.00 and the pIC50 [2] was > 8.00.
In the case of `O=P(O)(O)COC[C@H]1O[C@@H](n2ncc3c(NC4CCC4)nc(Cl)nc32)[C@H](O)[C@@H]1O` [Compound 270, [(2R,3S,4R,5R)-5-[6-chloro-4-(cyclobutyl-amino)pyrazolo[3,4-d]-pyrimidin-1-yl]-3,4-dihydroxy-tetrahydro-furan-2-yl]methoxy-methylphosphonic acid], the pIC50 [1] was > 8.00 and the pIC50 [2] was > 8.00.
In the case of `O=P(O)(O)COC[C@H]1O[C@@H](n2ncc3c(NC4CC(F)(F)C4)nc(Cl)nc32)[C@H](O)[C@@H]1O` [Compound 271, [(2R,3S,4R,5R)-5-[6-chloro-4-[(3,3-difluoro-cyclobutyl)amino]-pyrazolo[3,4-d]-pyrimidin-1-yl]-3,4-dihydroxy-tetrahydro-furan-2-yl]methoxy-methylphosphonic acid], the pIC50 [1] was > 8.00 and the pIC50 [2] was > 8.00.
With `CC(C)(O)C#Cc1nc(NC2CCCC2)c2ccn([C@@H]3O[C@H](COCP(=O)(O)O)[C@@H](O)[C@H]3O)c2n1` [Compound 272, [(2R,3S,4R,5R)-5-[4-(cyclopentylamino)-2-(3-hydroxy-3-methyl-but-1-ynyl)pyrrolo[2,3-d]pyrimidin-7-yl]-3,4-dihydroxy-tetrahydro-furan-2-yl]methoxy-methylphosphonic acid] the pIC50 [1] was 7.00 to 8.00 and the pIC50 [2] was > 8.00.
For `O=P(O)(O)COC[C@H]1O[C@@H](n2ncc3c(N4CC5CCCC5C4)nc(Cl)nc32)[C@H](O)[C@@H]1O` (stereo partly drawn) [Compound 274, [(2R,3S,4R,5R)-5-[4-(3,3a,4,5,6,6a-hexa-hydro-1H-cyclopenta-[c]pyrrol-2-yl)-6-chloro-pyrazolo[3,4-d]-pyrimidin-1-yl]-3,4-dihydroxy-tetrahydro-furan-2-yl]methoxy-methylphosphonic acid], the pIC50 [1] was > 8.00 and the pIC50 [2] was > 8.00.
In the case of `O=P(O)(O)COC[C@H]1O[C@@H](n2ncc3c(N4CCC(F)(F)C4)nc(Cl)nc32)[C@H](O)[C@@H]1O` [Compound 275, [(2R,3S,4R,5R)-5-[6-chloro-4-(3,3-difluoro-pyrrolidin-1-yl)-pyrazolo[3,4-d]-pyrimidin-1-yl]-3,4-dihydroxy-tetrahydro-furan-2-yl]methoxy-methylphosphonic acid], the pIC50 [1] was > 8.00 and the pIC50 [2] was > 8.00.
